System: C57BL/6J mice
Assay: Glucokinase activator in vivo screen (blood glucose after oral dosing)
Settings: oral gavage 50 mg/kg after two hour fast, readings 1, 2, 4 and 6 hours post dose, p≦0.05 for two consecutive assay time points
Protocol: Glucokinase Activator in vivo Screen Protocol: C57BL/6J mice are orally dosed via gavage with Glucokinase (GK) activator at 50 mg/kg body weight following a two hour fasting period. Blood glucose determinations are made five times during the six hour post-dose study period.
Mice (n=6) are weighed and fasted for a two hour period prior to oral treatment.

| Structure (SMILES) | decrease in blood glucose compared to vehicle |
| --- | --- |
| CS(=O)(=O)c1ccc([C@@H](CC2CCCC2)C(=O)Nc2cnc(C3OCCO3)cn2)cc1Cl [Example 41, 2(R)-(3-Chloro-4-methanesulfonyl-phenyl)-3-cyclopentyl-N-(5-[1,3]dioxolan-2-yl-pyrazin-2-yl)-propionamide] | statistically significant (p≦0.05) decrease in blood glucose |
| CS(=O)(=O)c1ccc([C@@H](CC2CCCC2)C(=O)Nc2cnc(-c3ccco3)cn2)cc1Cl [Example 70, 2(R)-(3-Chloro-4-methanesulfonyl-phenyl)-3-cyclopentyl-N-(5-furan-2-yl-pyrazin-2-yl)-propionamide] | statistically significant (p≦0.05) decrease in blood glucose |
| COCCOc1cnc(NC(=O)[C@H](CC2CCCC2)c2ccc(S(C)(=O)=O)c(Cl)c2)cn1 [Example 43, 2(R)-(3-Chloro-4-methanesulfonyl-phenyl)-3-cyclopentyl-N-5-(2-methoxyethoxy-pyrazin-2-yl)-propionamide] | statistically significant (p≦0.05) decrease in blood glucose |
| CS(=O)(=O)c1ccc([C@@H](CC2CCCC2)C(=O)Nc2cnc(C(O)C#N)cn2)cc1Cl (stereo partly drawn) [Example 26, 2(R)-(3-Chloro-4-methanesulfonyl-phenyl)-N-[5-(cyano-hydroxy-methyl)-pyrazin-2-yl]-3-cyclopentyl-propionamide] | statistically significant (p≦0.05) decrease in blood glucose |
| Cc1cc([C@@H](CC2CCCC2)C(=O)Nc2cnc(C#CC3(O)CCOCC3)cn2)ccc1S(C)(=O)=O [Example 59, 3-Cyclopentyl-N-[5-(4-hydroxy-tetrahydro-pyran-4-ylethynyl)-pyrazin-2-yl]-2(R)-(4-methanesulfonyl-3-methyl-phenyl)-propionamide] | statistically significant (p≦0.05) decrease in blood glucose |
| CS(=O)(=O)c1ccc(C(CC2CCCC2)C(=O)Nc2cnc(CC3SC(=O)NC3=O)cn2)cc1Cl (centres unmarked) [Example 19, 2-(3-Chloro-4-methanesulfonyl-phenyl)-3-cyclopentyl-N-[5-(2,4-dioxo-thiazolidin-5-ylmethyl)-pyrazin-2-yl]-propionamide] | statistically significant (p≦0.05) decrease in blood glucose |
| C/C(=N/O)c1cnc(NC(=O)[C@H](CC2CCCC2)c2ccc(S(C)(=O)=O)c(Cl)c2)cn1 [Example 28, 2(R)-(3-Chloro-4-methanesulfonyl-phenyl)-3-cyclopentyl-N-[5-(1-(Z)-hydroxyimino-ethyl)-pyrazin-2-yl]-propionamide] | statistically significant (p≦0.05) decrease in blood glucose |
| CN(C)CC#Cc1cnc(NC(=O)[C@H](CC2CCCC2)c2ccc(S(C)(=O)=O)c(Cl)c2)cn1 [Example 11, 2(R)-(3-Chloro-4-methanesulfonyl-phenyl)-3-cyclopentyl-N-[5-(3-dimethylamino-prop-1-ynyl)-pyrazin-2-yl]-propionamide] | statistically significant (p≦0.05) decrease in blood glucose |
| CC(=O)c1cnc(NC(=O)C(CC2CCCC2)c2ccc(S(C)(=O)=O)c(Cl)c2)cn1 (centres unmarked) [Example 23, N-(5-Acetyl-pyrazin-2-yl)-2-(3-chloro-4-methanesulfonyl-phenyl)-3-cyclopentyl-propionamide] | statistically significant (p≦0.05) decrease in blood glucose |
| COC(OC)c1cnc(NC(=O)[C@H](CC2CCCC2)c2ccc(S(C)(=O)=O)c(Cl)c2)cn1 [Example 21, 2(R)-(3-Chloro-4-methanesulfonyl-phenyl)-3-cyclopentyl-N-(5-dimethoxymethyl-pyrazin-2-yl)-propionamide] | statistically significant (p≦0.05) decrease in blood glucose |
| CS(=O)(=O)c1ccc([C@@H](CC2CCCC2)C(=O)Nc2ccc(C3CCCO3)cn2)cc1Cl (stereo partly drawn) [Example 69, 2(R)-(3-Chloro-4-methanesulfonyl-phenyl)-3-cyclopentyl-N-[5-(tetrahydro-furan-2-yl)-pyridin-2-yl]-propionamide] | statistically significant (p≦0.05) decrease in blood glucose |
